Experiments:
Type in all cases: biochemical
[1] = molecular target: T1, yeast α-glucosidase (Saccharomyces cerevisiae, UniProt P53341); assay: α-Glucosidase inhibition assay, pH 7.4; conditions: 5 mM test compound, read-out: ALPHA GLUCOSIDASE pH 7.4 (enzyme inhibition)
T1 construct: purchased Sigma
Description: (§1) The glycosidase inhibition activity is determined by modifying an assay procedure described in Evans et al, Phytochemistry, 22, pp. 768-770 (1983). More particularly, yeast α-glucosidase and almond β-glucosidase activities were measured by the Evans et al method which was modified by assaying activities at pH 7.4 in N-2-hydroxyethylpiperazine-N-2-ethane sulfonic acid (HEPES) buffer, measuring in 96 well microtiter plates, and including 10% DMSO in control and test samples.
(§2) The release of p-nitrophenol from the substrate p-nitrophenylglycoside was measured spectrophotometrically in the presence and absence of test compound. Each assay included a known inhibitor of the enzyme as a standard. […]
To 100 ul 50 mM HEPES buffer, pH 7.4, in a microtiter plate, 20 ul test compound in DMSO (DMSO alone in control)and 40 ul (0.013 units) yeast α-glucosidase (Sigma) in HEPES buffer were added and pre-incubated at room temperature 15 minutes. 40 ul 1.25 mM p-nitrophenyl-α-D-glucopyranoside (Sigma) in HEPES buffer, as substrate was added and the absorbance change at 405 nm was monitored in a Biotek EIA Autoreader. Absorption change was measured at 15 to 25 minutes (reaction was linear for at least 30 minutes). […] IC50 values were determined from the linear portion of the log concentration vs percent inhibition curve obtained from a minimum of 3 points. […]

[2] = molecular target: T2, alpha mannosidase (Canavalia ensiformis, UniProt C0HJB3); assay: α-Mannosidase inhibition, pH 4.5; conditions: 5 mM test compound, read-out: ALPHA MANNOSIDASE pH 4.5 (enzyme inhibition)
T2 sequence (C0HJB3 1-981): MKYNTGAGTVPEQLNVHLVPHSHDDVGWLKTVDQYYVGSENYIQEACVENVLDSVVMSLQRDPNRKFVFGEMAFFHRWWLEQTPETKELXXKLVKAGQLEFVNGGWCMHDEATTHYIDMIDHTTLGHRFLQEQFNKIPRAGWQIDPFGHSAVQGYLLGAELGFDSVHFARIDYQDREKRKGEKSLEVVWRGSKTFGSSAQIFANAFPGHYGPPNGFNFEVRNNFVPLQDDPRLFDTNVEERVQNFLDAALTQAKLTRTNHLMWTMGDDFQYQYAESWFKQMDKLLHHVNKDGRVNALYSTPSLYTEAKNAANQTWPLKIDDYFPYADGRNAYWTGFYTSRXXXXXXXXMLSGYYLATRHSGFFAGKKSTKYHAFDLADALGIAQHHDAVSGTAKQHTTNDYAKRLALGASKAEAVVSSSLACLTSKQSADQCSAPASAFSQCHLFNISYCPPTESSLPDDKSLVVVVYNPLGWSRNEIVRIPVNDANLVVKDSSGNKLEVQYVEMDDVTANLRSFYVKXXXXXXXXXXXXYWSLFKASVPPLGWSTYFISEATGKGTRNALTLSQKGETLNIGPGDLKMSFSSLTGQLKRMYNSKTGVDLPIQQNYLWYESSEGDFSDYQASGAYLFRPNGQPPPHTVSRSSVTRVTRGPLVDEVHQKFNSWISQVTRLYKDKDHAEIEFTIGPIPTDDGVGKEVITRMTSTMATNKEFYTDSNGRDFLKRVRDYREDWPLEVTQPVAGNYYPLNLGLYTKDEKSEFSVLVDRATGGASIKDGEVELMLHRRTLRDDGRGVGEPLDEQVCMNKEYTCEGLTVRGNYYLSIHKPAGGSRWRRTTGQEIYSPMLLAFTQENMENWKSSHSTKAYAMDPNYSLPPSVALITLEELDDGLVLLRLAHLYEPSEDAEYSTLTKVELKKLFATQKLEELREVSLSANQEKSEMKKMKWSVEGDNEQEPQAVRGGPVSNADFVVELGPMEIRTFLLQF
Description: (§3) The release of p-nitrophenol from the substrate p-nitrophenylglycoside was measured spectrophotometrically in the presence and absence of test compound. Each assay included a known inhibitor of the enzyme as a standard. IC50 values were determined for compounds which inhibited the enzymes more than 50% at a 1 millimolar concentration.

[3] = molecular target: T2, alpha mannosidase; assay: α-Mannosidase inhibition, pH 7.4; conditions: 5 mM test compound, read-out: ALPHA MANNOSIDASE pH 7.4 (enzyme inhibition)
Description: as §3

[4] = test system: almond β-glucosidase; assay: β-Glucosidase inhibition assay, pH 4.8; conditions: 5 mM test compound
Description: as §1, §3
β-Glucosidase Inhibition Assay
To 100 ul 50 mM sodium citrate buffer, pH 4.8, in a microtiter plate, 20 ul test compound in DMSO (DMSO alone in control) and 20 ul (0.017 units) β-glucosidase (Sigma) in citrate buffer were added and pre-incubated at room temperature 15 minutes. […] 50 ul 0.4 M NaOH was added and the absorption change at 405 nm was determined utilizing a Biotek EIA Autoreader. […] IC50 values were determined from the linear portion of the log concentration vs percent inhibition curve obtained from a minimum of 3 points. […]

[5] = test system: almond β-glucosidase; assay: β-Glucosidase inhibition assay, pH 7.4; conditions: 5 mM test compound
Description: as §1, §2
To 100 ul 50 mM HEPES buffer, pH 7.4, in a microtiter plate, 20 ul test compound in DMSO (DMSO alone in control) and 40 ul (0.136 units) β-glucosidase (Sigma) in HEPES buffer were added and preincubated at room temperature 15 minutes. 40 ul 1.25 mM p-nitrophenyl-β-D-glucopyranoside in HEPES buffer was added as substrate and the absorbance change at 405 nm was monitored utilizing a Biotek EIA Autoreader. Absorption change was measured at 15 to 25 minutes (reaction is linear for at least 30 minutes). […] IC50 values were determined from the linear portion of the log concentration vs percent inhibition curve obtained from a minimum of 3 points. […]

T1 sequence (P53341 whole entry): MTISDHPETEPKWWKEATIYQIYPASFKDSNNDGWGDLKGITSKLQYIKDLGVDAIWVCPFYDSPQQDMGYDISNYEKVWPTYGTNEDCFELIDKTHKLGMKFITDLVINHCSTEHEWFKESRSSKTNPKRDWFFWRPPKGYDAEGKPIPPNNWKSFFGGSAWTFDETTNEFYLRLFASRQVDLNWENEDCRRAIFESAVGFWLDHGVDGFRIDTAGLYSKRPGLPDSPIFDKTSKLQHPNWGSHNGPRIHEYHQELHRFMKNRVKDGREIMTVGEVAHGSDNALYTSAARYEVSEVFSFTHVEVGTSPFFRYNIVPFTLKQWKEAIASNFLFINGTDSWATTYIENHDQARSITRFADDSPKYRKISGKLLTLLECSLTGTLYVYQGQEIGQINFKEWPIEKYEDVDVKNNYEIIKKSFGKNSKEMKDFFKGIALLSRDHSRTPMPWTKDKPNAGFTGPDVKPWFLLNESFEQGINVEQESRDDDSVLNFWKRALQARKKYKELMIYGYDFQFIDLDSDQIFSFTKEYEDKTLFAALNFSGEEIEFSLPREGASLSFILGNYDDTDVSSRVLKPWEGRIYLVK

SMILES	inhibition at 5000 µM [1] [%]	inhibition at 5000 µM [2] [%]	inhibition at 5000 µM [3] [%]	BETA GLUCOSIDASE pH 4.8 (enzyme inhibition) [4] [%]	BETA GLUCOSIDASE pH 7.4 (enzyme inhibition) [5] [%]
OC[C@H]1NC[C@H](O)[C@@H](O)[C@@H]1F [Compound 1, 1,4-dideoxy-4-fluoronojirimycin]	18	-2	12	17	13
CCCCN1C[C@H](O)[C@@H](O)[C@H](F)[C@H]1CO [Compound 2, N-butyl-1,4-dideoxy-4-fluoronojirimycin]	28	-3	6	13	14

— patent publication US5128347A, “Glycosidase inhibiting 1,4-dideoxy-4-fluoronojirimycin” (Monsanto Company, priority 1990, dated 1992)
